Reference: ChEMBL document CHEMBL4118156, “Design, synthesis and evaluation of vilazodone-tacrine hybrids as multitarget-directed ligands against depression with cognitive impairment” (Bioorg Med Chem, 2018)

Tests used:
[1] = in vitro; conditions: PAMPA
Description: Effective permeability of the compound in PBS/ethanol buffer after 12 hrs by PAMPA

[2] = molecular target: T1, Butyrylcholinesterase (Rattus norvegicus, UniProt Q9JKC1)
Description: (§1) Inhibition of rat serum BChE using butyrylthiocholine iodide as substrate after 20 mins by Ellman's method

[3] = molecular target: T2, Acetylcholinesterase (Rattus norvegicus, UniProt P37136); assay: Inhibition of rat cortex AChE using acetylthiocholine iodide as substrate after 20 mins by Ellman's method
T2 sequence (P37136 whole entry): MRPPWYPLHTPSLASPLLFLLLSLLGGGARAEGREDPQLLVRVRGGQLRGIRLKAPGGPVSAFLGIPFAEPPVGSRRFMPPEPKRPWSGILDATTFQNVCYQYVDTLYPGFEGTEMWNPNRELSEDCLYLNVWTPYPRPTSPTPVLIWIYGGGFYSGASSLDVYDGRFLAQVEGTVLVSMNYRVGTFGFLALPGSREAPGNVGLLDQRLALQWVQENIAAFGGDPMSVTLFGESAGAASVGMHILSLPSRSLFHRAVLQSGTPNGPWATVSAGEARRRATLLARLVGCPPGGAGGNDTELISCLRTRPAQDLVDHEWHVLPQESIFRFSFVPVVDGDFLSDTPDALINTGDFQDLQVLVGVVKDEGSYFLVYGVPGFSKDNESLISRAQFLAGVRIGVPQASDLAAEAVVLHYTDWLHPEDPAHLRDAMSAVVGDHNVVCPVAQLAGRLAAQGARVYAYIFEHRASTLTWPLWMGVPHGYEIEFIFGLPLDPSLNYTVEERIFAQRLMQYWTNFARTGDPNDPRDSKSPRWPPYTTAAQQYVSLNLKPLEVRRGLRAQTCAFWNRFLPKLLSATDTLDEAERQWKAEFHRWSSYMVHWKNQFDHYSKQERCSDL

[4] = molecular target: T3, 5-hydroxytryptamine receptor 1A (Homo sapiens, UniProt P08908)
T3 sequence (P08908 whole entry): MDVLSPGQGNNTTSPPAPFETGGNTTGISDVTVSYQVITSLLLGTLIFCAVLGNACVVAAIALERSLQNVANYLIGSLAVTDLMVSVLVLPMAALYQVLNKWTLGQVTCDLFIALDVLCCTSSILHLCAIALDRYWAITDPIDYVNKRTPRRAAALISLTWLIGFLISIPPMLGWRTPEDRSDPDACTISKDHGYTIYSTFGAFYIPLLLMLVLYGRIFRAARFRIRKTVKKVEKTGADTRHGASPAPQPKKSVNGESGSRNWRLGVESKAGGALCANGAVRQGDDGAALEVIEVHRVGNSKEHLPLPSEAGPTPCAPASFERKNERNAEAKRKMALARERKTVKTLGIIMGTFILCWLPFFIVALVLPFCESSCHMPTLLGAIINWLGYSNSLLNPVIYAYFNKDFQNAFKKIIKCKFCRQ
Description: Agonist activity at human 5-HT1A receptor expressed in HEK293 cells after 60 mins by Eu-cAMP solution based ultra LANCE assay

[5] = molecular target: Sodium-dependent serotonin transporter (Homo sapiens, UniProt P31645); format: cell-based, HEK293
Description: Inhibition of SERT (unknown origin) expressed in HEK293 cells assessed as reduction in 5-HT uptake incubated for 30 mins

[6] = in vitro; conditions: not told
Description: Effective permeability of the compound in PBS/ethanol buffer

[7] = molecular target: T1, Butyrylcholinesterase; remark: listed apart in the source
Description: as §1

T1 sequence (Q9JKC1 whole entry): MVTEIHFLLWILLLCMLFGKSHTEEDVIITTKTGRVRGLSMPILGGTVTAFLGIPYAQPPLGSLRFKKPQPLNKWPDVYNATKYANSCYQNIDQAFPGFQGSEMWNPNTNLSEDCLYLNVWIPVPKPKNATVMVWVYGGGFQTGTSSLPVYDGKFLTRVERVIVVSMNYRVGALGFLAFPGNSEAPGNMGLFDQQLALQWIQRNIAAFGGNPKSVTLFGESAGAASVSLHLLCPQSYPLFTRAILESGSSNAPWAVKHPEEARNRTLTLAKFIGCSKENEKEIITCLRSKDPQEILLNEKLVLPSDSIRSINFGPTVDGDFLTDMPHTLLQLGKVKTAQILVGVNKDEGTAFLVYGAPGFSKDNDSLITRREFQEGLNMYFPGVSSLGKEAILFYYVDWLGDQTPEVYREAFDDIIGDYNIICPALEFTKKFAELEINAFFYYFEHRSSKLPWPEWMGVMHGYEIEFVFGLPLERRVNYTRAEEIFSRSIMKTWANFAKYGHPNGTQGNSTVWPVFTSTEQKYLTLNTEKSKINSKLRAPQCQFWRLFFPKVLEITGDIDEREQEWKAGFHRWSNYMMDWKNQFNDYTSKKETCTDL
Sodium-dependent serotonin transporter, sequence (P31645 whole entry): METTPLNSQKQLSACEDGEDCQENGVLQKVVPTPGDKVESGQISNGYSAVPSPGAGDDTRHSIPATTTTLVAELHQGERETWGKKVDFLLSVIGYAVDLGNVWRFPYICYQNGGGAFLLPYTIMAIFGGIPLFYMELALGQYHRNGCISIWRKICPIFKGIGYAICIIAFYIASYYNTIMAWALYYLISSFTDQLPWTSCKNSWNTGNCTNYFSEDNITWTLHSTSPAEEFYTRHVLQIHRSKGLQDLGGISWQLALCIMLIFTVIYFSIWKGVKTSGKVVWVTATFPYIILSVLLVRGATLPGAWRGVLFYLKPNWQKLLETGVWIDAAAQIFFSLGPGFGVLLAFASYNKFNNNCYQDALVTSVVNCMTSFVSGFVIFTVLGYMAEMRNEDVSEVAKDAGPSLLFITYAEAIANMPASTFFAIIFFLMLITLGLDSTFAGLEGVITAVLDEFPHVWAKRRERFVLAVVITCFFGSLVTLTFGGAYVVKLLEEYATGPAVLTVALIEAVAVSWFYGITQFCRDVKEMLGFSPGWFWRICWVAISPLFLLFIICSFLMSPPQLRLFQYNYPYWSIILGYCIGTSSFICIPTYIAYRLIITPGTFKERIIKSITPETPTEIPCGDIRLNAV

| Papp [6] | SMILES | Papp at 12 h [1] | IC50 [2] | IC50 ([3]; read-out: IC50) | EC50 [4] | IC50 [5] | IC50 [3] | IC50 [7] |
| --- | --- | --- | --- | --- | --- | --- | --- | --- |
| – | N#Cc1ccc2[nH]cc(C(=O)CCCN3CCN(c4cccc5nc6c(c(N)c45)CCCC6)CC3)c2c1 | 1.33 ×10⁻⁶ cm/s | 390 nM | 1360 nM | 62.4 nM | – | – | – |
| – | COc1ccc2[nH]cc(CCCCN3CCN(c4cccc5nc6c(c(N)c45)CCCC6)CC3)c2c1 | 4.53 ×10⁻⁶ cm/s | 400 nM | 1620 nM | < 0.14 nM | 229 nM | – | – |
| 0.8 ×10⁻⁶ cm/s | CC1COc2c(N3CCN(C)CC3)c(F)cc3c2N1CC(C(=O)O)C3=O (stereo not drawn) | 0.4 ×10⁻⁶ cm/s | – | – | – | – | – | – |
| – | N#Cc1ccc2[nH]cc(CCCCN3CCN(c4cccc5c(N)c6c(nc45)CCCC6)CC3)c2c1 | 4.43 ×10⁻⁶ cm/s | 310 nM | 2330 nM | 1.55 nM | – | – | – |
| – | N#Cc1ccc2[nH]cc(CCN3CCN(c4cccc5nc6c(c(N)c45)CCCC6)CC3)c2c1 | 4.48 ×10⁻⁶ cm/s | 1130 nM | 2100 nM | > 10000 nM | – | – | – |
| – | Nc1c2c(nc3cccc(N4CCN(CCCCc5c[nH]c6ccc(Br)cc56)CC4)c13)CCCC2 | 3.05 ×10⁻⁶ cm/s | – | – | 0.35 nM | – | Nd(Insoluble) | Nd(Insoluble) |
| – | N#Cc1ccc2[nH]cc(CCCN3CCN(c4cccc5nc6c(c(N)c45)CCCC6)CC3)c2c1 | 5.46 ×10⁻⁶ cm/s | 420 nM | 1820 nM | 52 nM | – | – | – |
| – | Nc1c2c(nc3cccc(N4CCN(CCCCc5c[nH]c6ccccc56)CC4)c13)CCCC2 | 3.52 ×10⁻⁶ cm/s | 390 nM | 1440 nM | 1.2 nM | – | – | – |
| – | N#Cc1ccc2[nH]cc(C(=O)CCCN3CCN(c4ccc5c(N)c6c(nc5c4)CCCC6)CC3)c2c1 | 1.68 ×10⁻⁶ cm/s | 370 nM | 1980 nM | 567 nM | – | – | – |
| – | N#Cc1ccc2[nH]cc(CCCCN3CCN(c4ccc5oc(C(N)=O)cc5c4)CC3)c2c1 [VILAZODONE] | – | – | 21300 nM | – | – | – | – |
| – | Nc1c2c(nc3cccc(N4CCN(CCCCc5c[nH]c6ccc(Cl)cc56)CC4)c13)CCCC2 | 2.74 ×10⁻⁶ cm/s | – | – | 0.75 nM | – | Nd(Insoluble) | Nd(Insoluble) |
| – | Nc1c2c(nc3cccc(N4CCN(CCCCc5c[nH]c6ccc(F)cc56)CC4)c13)CCCC2 | 3.76 ×10⁻⁶ cm/s | – | – | 0.72 nM | – | Nd(Insoluble) | Nd(Insoluble) |
| – | CC(=O)Nc1c2c(nc3cccc(N4CCN(CCCCc5c[nH]c6ccc(C#N)cc56)CC4)c13)CCCC2 | 1.92 ×10⁻⁶ cm/s | 2920 nM | 5610 nM | 93.4 nM | – | – | – |
| – | N#Cc1ccc2[nH]cc(C(=O)CCCN3CCN(c4cccc5c(N)c6c(nc45)CCCC6)CC3)c2c1 | 1.61 ×10⁻⁶ cm/s | 1850 nM | 3310 nM | 35 nM | – | – | – |
| – | N#Cc1ccc2[nH]cc(C(=O)CCCN3CCN(c4ccc5nc6c(c(N)c5c4)CCCC6)CC3)c2c1 | 1.04 ×10⁻⁶ cm/s | 250 nM | 2910 nM | 1560 nM | – | – | – |
| – | N#Cc1ccc2[nH]cc(CCCCN3CCN(c4cccc5nc6c(c(N)c45)CCC6)CC3)c2c1 | 4.38 ×10⁻⁶ cm/s | 100 nM | 2360 nM | 0.58 nM | 22.1 nM | – | – |
| – | N#Cc1ccc2[nH]cc(CCCCN3CCN(c4cccc5nc6c(c(N)c45)CCCC6)CC3)c2c1 | 5.11 ×10⁻⁶ cm/s | 340 nM | 1720 nM | 0.36 nM | 20.4 nM | – | – |
| – | N#Cc1ccc2[nH]cc(CCCCN3CCN(c4ccc5c(N)c6c(nc5c4)CCCC6)CC3)c2c1 | 2.99 ×10⁻⁶ cm/s | 250 nM | 5100 nM | 28.8 nM | – | – | – |
| – | COC(=O)c1ccc2[nH]cc(CCCCN3CCN(c4cccc5nc6c(c(N)c45)CCCC6)CC3)c2c1 | 6.22 ×10⁻⁶ cm/s | 410 nM | 2220 nM | < 0.14 nM | 314 nM | – | – |
| – | N#Cc1ccc2[nH]cc(CCCCN3CCN(c4ccc5nc6c(c(N)c5c4)CCCC6)CC3)c2c1 | 3.55 ×10⁻⁶ cm/s | 640 nM | 10200 nM | 14.9 nM | – | – | – |
| 11 ×10⁻⁶ cm/s | COc1ccc(CCN2CCC(Nc3nc4ccccc4n3Cc3ccc(F)cc3)CC2)cc1 [ASTEMIZOLE] | – | – | – | – | – | – | – |
| – | Cc1ccc2[nH]cc(CCCCN3CCN(c4cccc5nc6c(c(N)c45)CCCC6)CC3)c2c1 | 3.64 ×10⁻⁶ cm/s | 360 nM | 1120 nM | 0.6 nM | – | – | – |
| – | N#Cc1ccc2[nH]cc(CCCCN3CCN(c4cccc5nc6c(c(N)c45)CCCCC6)CC3)c2c1 | 3.97 ×10⁻⁶ cm/s | 230 nM | 18300 nM | 146 nM | – | – | – |
